Source: ChEMBL document CHEMBL5154744, “Stereo-Defined Acyclic Nucleoside Phosphonates are Selective and Potent Inhibitors of Parasite 6-Oxopurine Phosphoribosyltransferases” (J Med Chem, 2022)

Columns and labels:
NHDF = test: Cytotoxicity against human NHDF cells assessed as cell viability at 10 uM; assay type: toxicity, cell-based
[1] = target: T1, Hypoxanthine-guanine phosphoribosyltransferase (Homo sapiens, UniProt P00492); test: Inhibition of human HGPRT using PRib-PP as substrate by spectrophotometric assay
T1 sequence (P00492 whole entry): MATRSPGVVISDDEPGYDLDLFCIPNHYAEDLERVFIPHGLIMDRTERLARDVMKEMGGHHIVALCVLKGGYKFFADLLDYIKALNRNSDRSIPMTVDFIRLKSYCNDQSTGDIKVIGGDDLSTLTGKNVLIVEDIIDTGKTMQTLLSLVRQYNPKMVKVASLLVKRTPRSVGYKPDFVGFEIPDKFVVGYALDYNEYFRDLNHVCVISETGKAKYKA

[2] = Inhibition of Plasmodium falciparum HGXPRT using PRib-PP as substrate by spectrophotometric assay
[3] = Inhibition of His-tagged Trypanosoma brucei HGPRT1 expressed in Escherichia coli BL21 (DE3) cells using PRib-PP as substrate by spectrophotometric assay
[4] = Inhibition of His-tagged Trypanosoma brucei HGXPRT expressed in Escherichia coli BL21 (DE3) cells using PRib-PP as substrate by spectrophotometric assay
[5] = Inhibition of Plasmodium vivax HGPRT using PRib-PP as substrate by spectrophotometric assay
HeLa = test: Cytotoxicity against human HeLa cells assessed as cell viability at 10 uM; assay type: toxicity, cell-based

SMILES | Activity (NHDF) | Ki [1] | Ki [2] | Ki [3] | Ki [4] | Ki [5] | Activity (HeLa)
Nc1nc2c(ncn2C[C@H](COCP(=O)([O-])[O-])OCC(O)CO)c(=O)[nH]1.[Na+].[Na+] (stereo not given in full) | Non-Toxic | 4000 nM | 1000 nM | 500 nM | 2000 nM | 5000 nM | Non-Toxic
Nc1nc2c(ncn2C[C@@H](COCP(=O)([O-])[O-])OC[C@H](O)P(=O)([O-])[O-])c(=O)[nH]1.[Na+].[Na+].[Na+].[Na+] | Non-Toxic | 100 nM | 50 nM | 2 nM | 30 nM | 20 nM | Non-Toxic
O=c1[nH]cnc2c1ncn2C[C@@H](COCP(=O)([O-])[O-])OCC(O)CO.[Na+].[Na+] (stereo not given in full) | Non-Toxic |  | 2400 nM | 1000 nM | 14000 nM | 13000 nM | Non-Toxic
O=C(CCP(=O)(O)O)N1CC(OCCP(=O)(O)O)[C@H](n2cnc3c(=O)[nH]cnc32)C1 (stereo not given in full) |  | 20 nM | 14 nM |  |  | 80 nM | 
O=c1[nH]cnc2c1ncn2C[C@@H](COCP(=O)([O-])[O-])OCC(O)P(=O)([O-])[O-].[Na+].[Na+].[Na+].[Na+] (stereo not given in full) | Non-Toxic | 4000 nM | 400 nM | 30 nM | 30 nM | 200 nM | Non-Toxic
Nc1nc2c(ncn2C[C@H](COCP(=O)([O-])[O-])OCCCP(=O)([O-])[O-])c(=O)[nH]1.[Na+].[Na+].[Na+].[Na+] | Non-Toxic | 400 nM | 800 nM | 40 nM | 60 nM | 700 nM | Non-Toxic
Nc1nc2c(ncn2C[C@@H](COCP(=O)([O-])[O-])OCCCP(=O)([O-])[O-])c(=O)[nH]1.[Na+].[Na+].[Na+].[Na+] | Non-Toxic | 500 nM | 200 nM | 10 nM | 250 nM | 400 nM | Non-Toxic
O=c1[nH]cnc2c1ncn2C[C@@H](COCP(=O)([O-])[O-])OCCCP(=O)([O-])[O-].[Na+].[Na+].[Na+].[Na+] | Non-Toxic | 22000 nM | 6000 nM | 400 nM | 450 nM |  | Non-Toxic
O=C(CCP(=O)(O)O)N1CC(OC[C@@H](O)P(=O)(O)O)[C@H](n2cnc3c(=O)[nH]cnc32)C1 (stereo not given in full) |  |  | 2 nM |  |  | 6 nM | 
Nc1nc2c(ncn2C[C@@H](COCP(=O)([O-])[O-])OC[C@@H](O)P(=O)([O-])[O-])c(=O)[nH]1.[Na+].[Na+].[Na+].[Na+] | Non-Toxic | 70 nM | 30 nM | 2 nM | 20 nM | 20 nM | Non-Toxic
O=c1[nH]cnc2c1ncn2CCCC(O)C(O)P(=O)(O)O (stereo not given) |  | 5000 nM | 3000 nM | 7000 nM | 6000 nM |  | 
Nc1nc2c(ncn2CCOCC(O)P(=O)(O)O)c(=O)[nH]1 (stereo not given) |  | 200 nM | 300 nM |  | 600 nM |  | 
Nc1nc2c(ncn2C[C@H](COCP(=O)([O-])[O-])OCC(O)P(=O)([O-])[O-])c(=O)[nH]1.[Na+].[Na+].[Na+].[Na+] (stereo not given in full) | Non-Toxic | 400 nM | 100 nM | 40 nM | 40 nM | 300 nM | Non-Toxic
O=c1[nH]cnc2c1ncn2CCC/C=C/P(=O)(O)O |  | 6000 nM | 13000 nM | 1000 nM | 12000 nM |  | 
O=c1[nH]cnc2c1ncn2C[C@H](COCP(=O)([O-])[O-])OCCCP(=O)([O-])[O-].[Na+].[Na+].[Na+].[Na+] | Non-Toxic | 300 nM |  | 1500 nM | 200 nM |  | Non-Toxic
O=c1[nH]cnc2c1ncn2CCOCC(O)P(=O)(O)O (stereo not given) |  | 2000 nM | 700 nM | 600 nM | 100 nM |  | 
Nc1nc2c(ncn2CC(COCP(=O)(O)O)COCP(=O)(O)O)c(=O)[nH]1 |  |  | 70 nM |  |  | 600 nM | 
O=c1[nH]cnc2c1ncn2C[C@H](COCP(=O)([O-])[O-])OCC(O)CO.[Na+].[Na+] (stereo not given in full) | Non-Toxic |  |  | 2400 nM | 9000 nM |  | Non-Toxic
O=c1[nH]cnc2c1ncn2C[C@H](COCP(=O)([O-])[O-])OCC(O)P(=O)([O-])[O-].[Na+].[Na+].[Na+].[Na+] (stereo not given in full) | Non-Toxic | 2000 nM |  | 300 nM | 100 nM | 700 nM | Non-Toxic
Nc1nc2c(ncn2C[C@@H](COCP(=O)([O-])[O-])OCC(O)CO)c(=O)[nH]1.[Na+].[Na+] (stereo not given in full) | Non-Toxic | 9000 nM | 1000 nM | 300 nM | 2000 nM | 2000 nM | Non-Toxic
Nc1nc2c(ncn2C[C@@H](COCCOP(=O)(O)O)COCP(=O)(O)O)c(=O)[nH]1 |  | 6 nM | 70 nM |  |  | 200 nM | 
Nc1nc2c(ncn2C[C@@H](COCP(=O)([O-])[O-])OCC(O)P(=O)([O-])[O-])c(=O)[nH]1.[Na+].[Na+].[Na+].[Na+] (stereo not given in full) | Non-Toxic | 100 nM | 30 nM | 5 nM | 20 nM | 10 nM | Non-Toxic
